Data published in ChEMBL document CHEMBL4765326, “Anchoring BODIPY photosensitizers enable pan-microbial photoinactivation” (Eur J Med Chem, 2020).
Active and inactive are the calls of the source. The rule behind the calls is not given here.

Assays:
[1] = Induction of singlet oxygen generation in DPBF solution assessed as singlet oxygen quantum yield irradiated with 80 mW/cm2 light by DPBF-based assay; assay type: functional
[2] = Octanol-water partition coefficient, logP of compound incubated for 24 hrs under shaking condition; assay type: physicochemical
Staphylococcus aureus [3] = test: Photodynamic antibacterial activity against Staphylococcus aureus assessed as bacterial eradication preincubated for 20 mins in dark condition followed by 18 J/cm2 LED light irradiation and measured after 18 hrs by broth microdilution method; assay type: functional; details: light or radiation study, 18.33 h, time 1100 min
Escherichia coli [4] = test: Photodynamic antibacterial activity against Escherichia coli assessed as bacterial eradication preincubated for 20 mins in dark condition followed by 18 J/cm2 LED light irradiation and measured after 18 hrs by broth microdilution method; assay type: functional; details: light or radiation study, 18.33 h, time 1100 min
Candida albicans [5] = test: Photodynamic antifungal activity against Candida albicans assessed as fungal eradication preincubated for 20 mins in dark condition followed by 18 J/cm2 LED light irradiation and measured after 18 hrs by broth microdilution method; assay type: functional; details: light or radiation study, 18.33 h, time 1100 min
Staphylococcus aureus [6] = test: Photodynamic antibacterial activity against methicillin resistant Staphylococcus aureus assessed as bacterial eradication preincubated for 20 mins in dark condition followed by 18 J/cm2 LED light irradiation and measured after 18 hrs by broth microdilution method; assay type: functional; details: light or radiation study, 18.33 h, time 1100 min
Staphylococcus aureus [7] = test: Antibacterial activity against Staphylococcus aureus up to 80 uM by broth microdilution method; assay type: functional, organism-based; details: dose microM <=80
Escherichia coli [8] = test: Antibacterial activity against Escherichia coli up to 80 uM by broth microdilution method; assay type: functional, organism-based; details: dose microM <=80
Candida albicans [9] = test: Antifungal activity against Candida albicans up to 80 uM by broth microdilution method; assay type: functional, organism-based; details: dose microM <=80
Staphylococcus aureus [10] = test: Antibacterial activity against methicillin resistant Staphylococcus aureus up to 80 uM by broth microdilution method; assay type: functional, organism-based; details: dose microM <=80
Cell membrane [11] = test: Disruption of cell membrane integrity in Staphylococcus aureus at 2 uM irradiated with 6J/cm2 light followed by compound exposure for 10 mins by FL-4L/propidium iodide Live/dead staining based laser confocal microscopic analysis
Staphylococcus aureus [12] = test: Binding affinity to Staphylococcus aureus cell wall assessed as bound fraction at 25 uM measured after 3 to 10 mins; details: time 3-10 min
Escherichia coli [13] = test: Binding affinity to Escherichia coli cell wall assessed as bound fraction at 25 uM measured after 3 to 10 mins; details: time 3-10 min
Candida albicans [14] = test: Binding affinity to Candida albicans cell wall assessed as bound fraction at 25 uM measured after 3 to 10 mins; details: time 3-10 min
Staphylococcus aureus [15] = test: Binding affinity to Staphylococcus aureus cell wall at 50 uM preincubated with 12.5 to 50 mM Ca2+ for 30 mins followed by incubation with compound for 30 mins
Escherichia coli [16] = test: Binding affinity to Escherichia coli cell wall at 50 uM preincubated with 12.5 to 50 mM Ca2+ for 30 mins followed by incubation with compound for 30 mins
Candida albicans [17] = test: Binding affinity to Candida albicans cell wall at 50 uM preincubated with 12.5 to 50 mM Ca2+ for 30 mins followed by incubation with compound for 30 mins
Cell membrane [18] = test: Disruption of cell membrane integrity in Escherichia coli at 2 uM irradiated with 6J/cm2 light followed by compound exposure for 10 mins by FL-4L/propidium iodide Live/dead staining based laser confocal microscopic analysis
Candida albicans [19] = test: Disruption of cell membrane integrity in Candida albicans at 2 uM irradiated with 6J/cm2 light followed by compound exposure for 10 mins by FL-4L/propidium iodide Live/dead staining based laser confocal microscopic analysis
Cell membrane [20] = test: Binding affinity to Staphylococcus aureus cell membrane assessed as reduction in zeta potential by zetasizer-based analysis; assay type: subcellular
Cell membrane [21] = test: Binding affinity to Escherichia coli cell membrane assessed as reduction in zeta potential by zetasizer-based analysis; assay type: subcellular
[22] = Drug localization in peripheral edge of Escherichia coli at 10 uM incubated for 30 mins by fluorescent dye based confocal microscopic analysis; assay type: ADME; details: 0.5 h

| SMILES | Activity [1] | logP at 24 h [2] | MIC (Staphylococcus aureus [3]) [µM] | MIC (Escherichia coli [4]) [µM] | MIC (Candida albicans [5]) [µM] | MIC (Staphylococcus aureus [6]) [µM] | Activity (Staphylococcus aureus [7]) | Activity (Escherichia coli [8]) | Activity (Candida albicans [9]) | Activity (Staphylococcus aureus [10]) | other results |
| --- | --- | --- | --- | --- | --- | --- | --- | --- | --- | --- | --- |
| CC1=C(I)C(C)=[N+]2C1=Cc1c(C)c(I)c(C)n1[B-]2(OCCCCc1cc[n+](C)cc1)OCCCCc1cc[n+](C)cc1 | 0.77 | -0.74 | 1.25 | 0.625 | 5 | 1.25 | inactive | inactive | inactive | inactive | – |
| CC1=C(I)C(C)=[N+]2C1=Cc1c(C)c(I)c(C)n1[B-]2(C#Cc1ccc[n+](C)c1)C#Cc1ccc[n+](C)c1 | 0.65 | -0.27 | 1.25 | 1.25 | 0.625 | 0.625 | inactive | inactive | inactive | inactive | – |
| CC1=C(I)C(C)=[N+]2C1=Cc1c(C)c(I)c(C)n1[B-]2(OCCc1cc[n+](C)cc1)OCCc1cc[n+](C)cc1 | 0.74 | -1.14 | 20 | 0.625 | 40 | 20 | inactive | inactive | inactive | inactive | Activity (Cell membrane [11]): inactive; Activity (Staphylococcus aureus [12]): 55%; Activity (Escherichia coli [13]): 51.9%; Activity (Candida albicans [14]): 34%; Activity (Staphylococcus aureus [15]): inactive; Activity (Escherichia coli [16]): inactive; Activity (Candida albicans [17]): inactive; Activity (Cell membrane [18]): Active; Activity (Candida albicans [19]): inactive; Activity (Cell membrane [20]): Active; Activity (Cell membrane [21]): Active |
| CC1=CC(C)=[N+]2C1=Cc1c(C)cc(C)n1[B-]2(OCCC[N+](C)(C)C)OCCC[N+](C)(C)C.[I-].[I-] | – | -1.17 | – | – | – | – | – | – | – | – | Drug uptake [22]: Active |
| CC1=C(I)C(C)=[N+]2C1=Cc1c(C)c(I)c(C)n1[B-]2(Oc1cc[n+](C)cc1)Oc1cc[n+](C)cc1 | 0.61 | -0.93 | 25 | 25 | 40 | 40 | inactive | inactive | inactive | inactive | – |
| CC1=C(I)C(C)=[N+]2C1=Cc1c(C)c(I)c(C)n1[B-]2(OCCC[N+](C)(C)C)OCCC[N+](C)(C)C | 0.68 | -1.01 | 30 | 40 | 40 | 20 | inactive | inactive | inactive | inactive | Activity (Staphylococcus aureus [12]): 51.8%; Activity (Escherichia coli [13]): 38.9%; Activity (Candida albicans [14]): 53.6%; Activity (Staphylococcus aureus [15]): inactive; Activity (Escherichia coli [16]): inactive; Activity (Candida albicans [17]): inactive; Activity (Cell membrane [20]): Active; Activity (Cell membrane [21]): Active |
| CC1=C(I)C(C)=[N+]2C1=Cc1c(C)c(I)c(C)n1[B-]2(OCc1cc[n+](C)cc1)OCc1cc[n+](C)cc1 | 0.59 | -1.21 | 50 | 25 | 40 | 40 | inactive | inactive | inactive | inactive | – |
